In brackets after ≈: the same amount, converted by molar mass.

The data set has as its system production of advanced glycation endproducts (glycation of bovine serum albumin (BSA)). Briefly: In vitro inhibition of production of advanced glycation endproducts (BSA/fructose/glucose culture, fluorescence). It is filed as biochemical. The note with it: for Inhibition (%) of production of advanced glycation endproducts Inhibition: cultured at 37 °C for 14 days. As for the experimental part:
For the in vitro analysis of the inhibitory effect cf each cf the leaf and stem extract of Aster koraiensis, the root extract of Aster koraiensis, the flower extract of Aster koraiensis, and the fractions cf each of the extracts, on the production cf advanced glycation endproducts, bovine serum albumin (hereinafter, referred to as BSA; Sigma, USA)) was selected as a protein source. BSA was added to 50 mM phosphate buffer (pH 7.4) to a concentration of 10 mg/mℓ. As a sugar source, a mixture of 0.2 M fructose and 0.2 M glucose was used. The fructose/glucose mixture was added to the prepared BSA solution. As test groups, each of the leaf and stem extract cf Aster koraiensis, the root extract cf Aster koraiensis, the flower extract of Aster koraiensis, and the hexane fraction, ethyl acetate fraction, butanol fraction and water fraction of each cf the extracts, was dissolved in distilled water. Then, each of the solutions was added to the BSA/sugar mixture and cultured at 37 °C for 14 days.
At this time, 0.02% sodium azide was added as an antibacterial agent. A control group was a culture of the BSA/sugar mixture, and the blank of each cf the test groups and the control group was not cultured after their preparation. Meanwhile, as a positive control for use as an index to determine the superiority cf the inventive material, aminoguanidine was used. Four samples for each of the cultures were prepared to minimize errors. After 14 days, the content of advanced glycation endproducts (AGEs) in each of the cultures was analyzed, and the analysis results were recorded. […] The amount cf advanced glycation endproducts having such properties was measured with a spectrofluorometer (excitation: 350 nm, and emission: 450 nm) to analyze the inhibition of the production of advanced glycation endproducts. […]
Each of the root extract and flower extract of Aster koraiensis, prepared in Example, were prepared into solutions having concentrations cf 10 µg/mℓ, 25 µg/mℓ and 50 µg/mℓ, respectively. […] After 14 days, the amount of advanced glycation endproducts produced in each of the cultures was measured with a spectrcfluorometer (excitation: 350 nm, and emission: 450 nm), and the measurement results are shown in Table 1 and FIG. 2.
The inhibition of the production of advanced glycation endproducts is calculated according to the following equation: Inhibition (%) of production = 100-(fluorescentintensityofsamplegroupfluorescentintensityofblankofsamplegroup)/(fluorenscentintensityofcontrolgroup-fluorescentintensityofblankofcontrolgroup)x100 [formula] […]
After 14 days, the amount cf advanced glycation endproducts produced in each cf the cultures was measured with a spectrcfluorometer (excitation: 350 nm, and emission: 450 nm).

On to `N=C(N)NN` [Aminoguanidine], for which the “Inhibition (%) of production of advanced glycation endproducts Inhibition” value is, setting by setting: (concentration 18.5 µg/mℓ) 12.70 ± 6.12%; (concentration 55.5 µg/mℓ) 39.46 ± 1.91%; (concentration 74.0 µg/mℓ) 50.68 ± 0.51%. The IC50 inhibitory concentration (production of advanced glycation endproducts, BSA/sugar mixture, 14 days) is 72.12 µg/mL (≈ 973 µM).

The values are drawn from patent publication EP2131850B1, “EXTRACTS OF ASTER KORAIENSIS, AND PHARMACEUTICAL COMPOSITION AND FUNCTIONAL FOOD COMPRISING THE SAME” (Korea Institute of Oriental Medicine, priority 2007, dated 2008).
